Measurements as given in patent US20060293294A1, “Method for treatment or prevention of androgen deficiency” (HORMOS MEDICAL CORPORATION, priority 2004, published 2006).

System: healthy, elderly men
Test: Phase I repeated dose study 101-50202: serum hormone concentrations before and during 28-day treatment
Format: in vivo, human
Details: for increase in the mean total testosterone compared to the baseline concentration: 300 mg dose
Description: Fispemifene has been studied in two phase I studies in humans—in a single dose and a repeated dose study. Effect of fispemifene on hormone levels was one main focus of the repeated dose study. The phase I repeated dose study (number 101-50202) was a randomized, double-blind, placebo-controlled 28-day dose-escalation study performed in 32 healthy, elderly men, aged 50-68 years. The main objective of the study was to investigate the tolerability, safety and pharmacokinetics of fispemifene after repeated oral doses, but the study focused also on the effects of fispemifene on serum testosterone, estradiol, and other relevant hormones. The fispemifene doses 10, 30, 100 and 300 mg per day and placebo were administered once every morning as capsules containing 10 mg or 100 mg of fispemifene, or placebo. The dose was escalated to the next higher dose level, if the previous dose had been safe and well tolerated evaluated by the laboratory safety determinations and ultrasound of mammagy glands.
The variables for safety and tolerability were adverse events, vital signs, 12-lead ECG, clinical laboratory evaluations, physical examination, ultrasound examinations (mammary glands) and inhibin b. For pharmacokinetics, the concentrations of fispemifene and its metabolite(s) were to be evaluated. For pharmacodynamics, serum concentrations of FSH, LH, estradiol, testosterone, SHBG, prolactin, aldosterone, cortisol and TSH before and during treatment were measured and compared with the concentrations in the placebo-group.

Structure (SMILES): OCCOCCOc1ccc(/C(=C(/CCCl)c2ccccc2)c2ccccc2)cc1 [Fispemifene, (Z)-2-{2-[4-(4-Chloro-1,2-diphenylbut-1-enyl)phenoxy]ethoxy}ethanol]
- Serum total testosterone concentration, Mean (10 mg per day oral, Baseline): 19.33 nmol/L
- Serum total testosterone concentration, Mean (10 mg per day oral, Day 8): 19.83 nmol/L
- Serum total testosterone concentration, Mean (10 mg per day oral, Day 15): 20.50 nmol/L
- Serum total testosterone concentration, Mean (10 mg per day oral, Day 22): 22.00 nmol/L
- Serum total testosterone concentration, Mean (10 mg per day oral, Day 28): 17.40 nmol/L
- Serum total testosterone concentration, Mean (30 mg per day oral, Baseline): 15.00 nmol/L
- Serum total testosterone concentration, Mean (30 mg per day oral, Day 8): 14.40 nmol/L
- Serum total testosterone concentration, Mean (30 mg per day oral, Day 15): 15.00 nmol/L
- Serum total testosterone concentration, Mean (30 mg per day oral, Day 22): 15.80 nmol/L
- Serum total testosterone concentration, Mean (30 mg per day oral, Day 28): 14.80 nmol/L
- increase of the mean total testosterone (100 mg dose, 28 days of treatment): about 32%
- subjects in whom an increase in testosterone serum concentration was seen (100 mg or 300 mg, 28-day treatment): all the subjects
- Serum total testosterone concentration, Mean (100 mg per day oral, Baseline): 14.27 nmol/L
- Serum total testosterone concentration, Mean (100 mg per day oral, Day 8): 18.67 nmol/L
- Serum total testosterone concentration, Mean (100 mg per day oral, Day 15): 19.00 nmol/L
- Serum total testosterone concentration, Mean (100 mg per day oral, Day 22): 17.83 nmol/L
- Serum total testosterone concentration, Mean (100 mg per day oral, Day 28): 18.83 nmol/L
- increase in the mean total testosterone compared to the baseline concentration (28 days of treatment): 75%
- increase in the mean total testosterone compared to the baseline concentration (28 days of treatment, listed as fispemifene): about 75%
- Serum total testosterone concentration, Mean (300 mg per day oral, Baseline): 15.67 nmol/L
- Serum total testosterone concentration, Mean (300 mg per day oral, Day 8): 23.17 nmol/L
- Serum total testosterone concentration, Mean (300 mg per day oral, Day 15): 27.00 nmol/L
- Serum total testosterone concentration, Mean (300 mg per day oral, Day 22): 27.83 nmol/L
- Serum total testosterone concentration, Mean (300 mg per day oral, Day 28): 27.50 nmol/L
- serum concentrations of testosterone, FSH, LH, and SHBG (during the 28 days of treatment): increased
- men with serum testosterone level above the upper limit of normal range (33 nmol/L) during treatment (highest dose (300 mg), six men): Two out of six men
- change in the serum testosterone concentration (within 28 days from the start of the treatment): clinically and statistically significant and dose dependent increase
